Results published in ChEMBL document CHEMBL1201862, “PubChem BioAssay data set” (2004).
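Briefly, cells in 96-well plates were exposed to five compound concentrations for 48 h, and endpoints were estimated by linear interpolation. GI50 marks 50% less growth.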 Calls of active or inactive are those of the source. Cut-off read from the data, not from the text of the source: active = GI50 up to about 1.1 µM and inactive = higher.

Experiments:
Assay in all cases: growth of human tumour cells (NCI), 48 h
ACHN = system: ACHN
COLO 205 = system: COLO 205
EKVX = system: EKVX
HL-60 = system: HL-60
HOP-62 = system: HOP-62
HOP-92 = system: HOP-92
HT-29 = system: HT-29
Hs-578T = system: Hs-578T
IGROV-1 = system: IGROV-1
K562 = system: K562
LOX IMVI = system: LOX IMVI
MDA-N = system: MDA-N
NCI-H23 = system: NCI-H23
NCI-H460 = system: NCI-H460
NCI/ADR-RES = system: NCI/ADR-RES
OVCAR-4 = system: OVCAR-4
PC-3 = system: PC-3
SF-295 = system: SF-295
SK-MEL-2 = system: SK-MEL-2
SNB-75 = system: SNB-75

O=C(Nc1c(C(F)(F)F)cc(-c2ccccc2)[nH]c1=O)N1CCOCC1
GI50 (ACHN): > 100 µM (inactive)
GI50 (COLO 205): > 100 µM (inactive)
GI50 (EKVX): 40.2 µM (inactive)
GI50 (HL-60): 26.9 µM (inactive)
GI50 (HOP-62): > 100 µM (inactive)
GI50 (HOP-92): 58.9 µM (inactive)
GI50 (HT-29): > 100 µM (inactive)
GI50 (Hs-578T): > 100 µM (inactive)
GI50 (IGROV-1): > 100 µM (inactive)
GI50 (K562): > 100 µM (inactive)
GI50 (LOX IMVI): > 100 µM (inactive)
GI50 (MDA-N): 77.1 µM (inactive)
GI50 (NCI-H23): > 100 µM (inactive)
GI50 (NCI-H460): > 100 µM (inactive)
GI50 (NCI/ADR-RES): > 100 µM (inactive)
GI50 (OVCAR-4): 47.8 µM (inactive)
GI50 (PC-3): > 100 µM (inactive)
GI50 (SF-295): 62.1 µM (inactive)
GI50 (SK-MEL-2): > 100 µM (inactive)
GI50 (SNB-75): > 100 µM (inactive)

C=C(C)CNCC(=C)C.Oc1c(Cl)c(Cl)c(Cl)c(Cl)c1Cl
GI50 (ACHN): 21.6 µM (inactive)
GI50 (COLO 205): 22.7 µM (inactive)
GI50 (EKVX): 17.9 µM (inactive)
GI50 (HL-60): 3.15 µM (inactive)
GI50 (HOP-62): 22 µM (inactive)
GI50 (HOP-92): 24.4 µM (inactive)
GI50 (HT-29): 20.1 µM (inactive)
GI50 (Hs-578T): 35.6 µM (inactive)
GI50 (IGROV-1): 22.1 µM (inactive)
GI50 (K562): 32.4 µM (inactive)
GI50 (LOX IMVI): 22.3 µM (inactive)
GI50 (MDA-N): 18.7 µM (inactive)
GI50 (NCI-H23): 22.3 µM (inactive)
GI50 (NCI-H460): > 100 µM (inactive)
GI50 (NCI/ADR-RES): 23.8 µM (inactive)
GI50 (OVCAR-4): 23.5 µM (inactive)
GI50 (PC-3): 22.8 µM (inactive)
GI50 (SF-295): 16.5 µM (inactive)
GI50 (SK-MEL-2): 17.7 µM (inactive)
GI50 (SNB-75): 16.6 µM (inactive)

N=C(N)c1ccc(/N=N\c2c(O)ccc3c2[nH]c2ccccc23)cc1
GI50 (ACHN): 41.6 µM (inactive)
GI50 (COLO 205): 21.7 µM (inactive)
GI50 (EKVX): > 59.6 µM (inactive)
GI50 (HL-60): 1.15 µM (inactive)
GI50 (HOP-62): 13.6 µM (inactive)
GI50 (HOP-92): 98.6 µM (inactive)
GI50 (HT-29): 19.6 µM (inactive)
GI50 (Hs-578T): 63.8 µM (inactive)
GI50 (IGROV-1): 49.8 µM (inactive)
GI50 (K562): 1.63 µM (inactive)
GI50 (LOX IMVI): 2.24 µM (inactive)
GI50 (MDA-N): 6.3 µM (inactive)
GI50 (NCI-H23): 10.2 µM (inactive)
GI50 (NCI-H460): 2.76 µM (inactive)
GI50 (NCI/ADR-RES): 58.1 µM (inactive)
GI50 (OVCAR-4): 6.14 µM (inactive)
GI50 (PC-3): 9.73 µM (inactive)
GI50 (SF-295): > 51.5 µM (inactive)
GI50 (SK-MEL-2): 20.3 µM (inactive)
GI50 (SNB-75): 8.38 µM (inactive)

Cc1c2c(n(CCc3ccc(Cl)cc3)c1C)NC(c1ccccc1)C(C#N)S2(=O)=O (stereo not drawn)
GI50 (ACHN): > 100 µM (inactive)
GI50 (COLO 205): 8.36 µM (inactive)
GI50 (EKVX): 31.3 µM (inactive)
GI50 (HL-60): 7 µM (inactive)
GI50 (HOP-62): > 79.4 µM (inactive)
GI50 (HOP-92): 17.5 µM (inactive)
GI50 (HT-29): 11.9 µM (inactive)
GI50 (Hs-578T): 26.1 µM (inactive)
GI50 (IGROV-1): 17.2 µM (inactive)
GI50 (K562): 5.14 µM (inactive)
GI50 (LOX IMVI): 24.5 µM (inactive)
GI50 (MDA-N): 19.9 µM (inactive)
GI50 (NCI-H23): > 47.9 µM (inactive)
GI50 (NCI-H460): 44.1 µM (inactive)
GI50 (NCI/ADR-RES): > 63 µM (inactive)
GI50 (OVCAR-4): > 70.1 µM (inactive)
GI50 (PC-3): 19.6 µM (inactive)
GI50 (SF-295): > 53.5 µM (inactive)
GI50 (SK-MEL-2): 22.4 µM (inactive)
GI50 (SNB-75): 44.7 µM (inactive)

COc1cccc(/N=C/c2cc3cc(Br)ccc3nc2Cl)c1
GI50 (COLO 205): > 50 µM (inactive)
GI50 (EKVX): > 50 µM (inactive)
GI50 (HL-60): 10 µM (inactive)
GI50 (HOP-62): 41.4 µM (inactive)
GI50 (HOP-92): 30.3 µM (inactive)
GI50 (HT-29): 27 µM (inactive)
GI50 (Hs-578T): 40.6 µM (inactive)
GI50 (IGROV-1): 12.6 µM (inactive)
GI50 (K562): 8.09 µM (inactive)
GI50 (LOX IMVI): 18.9 µM (inactive)
GI50 (MDA-N): 13.6 µM (inactive)
GI50 (NCI-H23): 22.1 µM (inactive)
GI50 (NCI-H460): 13.8 µM (inactive)
GI50 (NCI/ADR-RES): 17.2 µM (inactive)
GI50 (OVCAR-4): 0.736 µM (active)
GI50 (PC-3): 8.67 µM (inactive)
GI50 (SF-295): 39.4 µM (inactive)
GI50 (SK-MEL-2): 13.7 µM (inactive)
GI50 (SNB-75): 17.1 µM (inactive)

CN(C)CCCNC(=O)CCNC(=O)c1cc(NC(=O)c2cc(NC(=O)c3cc(NC(=O)CCCNC(=O)c4cc(NC(=O)c5cc(NC(=O)c6nccn6C)cn5C)cn4C)cn3C)cn2C)cn1C
GI50 (ACHN): > 100 µM (inactive)
GI50 (COLO 205): > 100 µM (inactive)
GI50 (EKVX): > 100 µM (inactive)
GI50 (HL-60): > 100 µM (inactive)
GI50 (HOP-62): > 100 µM (inactive)
GI50 (HOP-92): > 100 µM (inactive)
GI50 (HT-29): > 100 µM (inactive)
GI50 (Hs-578T): > 100 µM (inactive)
GI50 (IGROV-1): > 100 µM (inactive)
GI50 (K562): > 100 µM (inactive)
GI50 (LOX IMVI): > 100 µM (inactive)
GI50 (MDA-N): > 100 µM (inactive)
GI50 (NCI-H23): > 100 µM (inactive)
GI50 (NCI-H460): > 100 µM (inactive)
GI50 (NCI/ADR-RES): > 100 µM (inactive)
GI50 (OVCAR-4): > 100 µM (inactive)
GI50 (PC-3): > 100 µM (inactive)
GI50 (SF-295): > 100 µM (inactive)
GI50 (SK-MEL-2): > 100 µM (inactive)
GI50 (SNB-75): > 100 µM (inactive)

CC(C)=C[C@@H]1C[C@H](n2cc(C)c(=O)[nH]c2=O)ON1CCO
GI50 (ACHN): > 100 µM (inactive)
GI50 (COLO 205): > 100 µM (inactive)
GI50 (EKVX): > 100 µM (inactive)
GI50 (HL-60): 3.08 µM (inactive)
GI50 (HOP-62): > 100 µM (inactive)
GI50 (HOP-92): > 100 µM (inactive)
GI50 (HT-29): > 100 µM (inactive)
GI50 (Hs-578T): > 100 µM (inactive)
GI50 (IGROV-1): > 100 µM (inactive)
GI50 (K562): > 100 µM (inactive)
GI50 (LOX IMVI): > 100 µM (inactive)
GI50 (MDA-N): > 100 µM (inactive)
GI50 (NCI-H460): > 100 µM (inactive)
GI50 (NCI/ADR-RES): > 100 µM (inactive)
GI50 (OVCAR-4): > 100 µM (inactive)
GI50 (PC-3): > 100 µM (inactive)
GI50 (SF-295): > 100 µM (inactive)
GI50 (SK-MEL-2): > 100 µM (inactive)
GI50 (SNB-75): > 100 µM (inactive)
